{
  "source": "patent US20230172981A1",
  "about": "“METHODS AND COMPOSITIONS FOR STIMULATION OF CHIMERIC ANTIGEN RECEPTOR T CELLS WITH HAPTEN LABELLED CELLS” (Seattle Children's Hospital (dba Seattle Children's …, priority 2020, published 2023)",
  "test_system": "CD19+K562 cells",
  "assay": "Cytokine release by antiFL CAR T cells with hapten-labeled cells",
  "format": "cell-based",
  "settings": "trend; hapten-labeled cells prepared with 5 μM FL-DHPE",
  "description": "Hapten-labeled cells were prepared. CD19+K562 cells were incubated either overnight with 5 μM FL-DHPE or for 20 min with an CD19 antibody labeled with FITC. The hapten-labeled cells were incubated with either one of two antiFL CAR T cells (FITC-E2 scFv, or 4M5.3 scFv). […] Hudecek M, et al., (2013) Clin Cancer Res. 19:3153-64, which is incorporated by reference in its entirety.\nThe levels of cytokines released by the antiFL CAR T cells were determined. […] The levels of released IFN-γ, and TNF-α were lower for hapten-labeled cells contacted with the antiFL(4M5.3) CAR T cell.",
  "data": [
    {"smiles": "CCCCCCCCCCCCCCCC(=O)OCC(COP(=O)(O)OCCNC(=S)Nc1ccc2c(c1)C(=O)OC21c2ccc(O)cc2Oc2cc(O)ccc21)OC(=O)CCCCCCCCCCCCCCC", "note": "(stereo not shown) [FL-DHPE, N-(Fluorescein-5-Thiocarbamoyl)-1,2-Dihexadecanoyl-sn-Glycero-3-Phosphoethanolamine]", "values": [
      {"measurement": "cytokine release induced, compared to cells prepared with CD19 antibody labeled with FITC", "value": "higher levels of cytokine release"}
    ]}
  ]
}
